The record followed here is patent US20240116985A1, “STAPLED PEPTIDES AND METHODS THEREOF” (priority 2020, published 2024).

The assay concerns the target T1, full-length beta-Catenin (Uniprot ID P35222) (Homo sapiens, UniProt P35222).
T1 construct: 10 nM full-length beta-Catenin (Uniprot ID P35222)
T1 sequence (P35222 1-781): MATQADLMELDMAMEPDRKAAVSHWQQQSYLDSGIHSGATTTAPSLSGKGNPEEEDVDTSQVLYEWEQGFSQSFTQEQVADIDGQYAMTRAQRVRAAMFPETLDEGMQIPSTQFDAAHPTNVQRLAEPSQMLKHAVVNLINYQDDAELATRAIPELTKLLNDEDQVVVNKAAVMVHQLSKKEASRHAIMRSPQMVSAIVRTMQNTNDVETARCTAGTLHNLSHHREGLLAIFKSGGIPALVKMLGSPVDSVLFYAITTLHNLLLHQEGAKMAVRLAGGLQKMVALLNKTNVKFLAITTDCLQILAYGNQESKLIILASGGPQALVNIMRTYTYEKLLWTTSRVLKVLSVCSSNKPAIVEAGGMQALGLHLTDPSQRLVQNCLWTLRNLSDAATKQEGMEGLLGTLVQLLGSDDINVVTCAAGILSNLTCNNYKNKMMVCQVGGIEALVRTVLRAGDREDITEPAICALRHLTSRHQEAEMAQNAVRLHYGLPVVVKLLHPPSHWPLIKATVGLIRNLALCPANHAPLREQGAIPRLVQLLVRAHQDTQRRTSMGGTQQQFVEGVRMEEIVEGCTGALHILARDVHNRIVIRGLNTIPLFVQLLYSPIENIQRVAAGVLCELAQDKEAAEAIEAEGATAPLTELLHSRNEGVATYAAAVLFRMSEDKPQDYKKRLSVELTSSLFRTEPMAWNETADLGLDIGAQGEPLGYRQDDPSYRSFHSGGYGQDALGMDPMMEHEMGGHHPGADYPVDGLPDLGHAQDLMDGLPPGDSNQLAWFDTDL
The experiment in a line: Fluorescence polarization IC50 (beta-catenin / 5FAM-TCF4 10-53 competition). The format is binding. The following applies: fluorescence polarization; read-out: beta-Catenin FP IC50.

Regarding `CC(=O)N1CCC[C@]12CCCCCCC1(CCCCCCCCOC(=O)N3CC[C@@](C(=O)N[C@@H](Cc4ccsc4)C(=O)N[C@@H](Cc4csc5ccccc45)C(=O)N[C@@H](CCC(N)=O)C(N)=O)(C3)NC(=O)[C@H](CC(C)C)NC(=O)[C@H](Cc3ccccc3)NC(=O)[C@H](C)NC(=O)[C@H](C)NC(=O)[C@H](CN(CC(=O)O)CC(F)(F)F)NC(=O)[C@H](CC(=O)O)NC1=O)NC(=O)[C@H](CC(C)(C)C)NC(=O)[C@H](CC(=O)O)NC2=O` (stereo partly drawn) [I-1605, Ac-PL3-Asp-Npg-B5-Asp-TfeGA-Ala-Ala-Phe-Leu-PyrS2-3Thi-BztA-Gln-NH2], the IC50 turned out to be 214 nM.
`CC(=O)N1CCC[C@]12CCCCCCC1(CCCCCCCCOC(=O)N3CC[C@@](C(=O)N[C@@H](Cc4ccccc4Cl)C(=O)N[C@@H](Cc4csc5ccccc45)C(=O)N[C@@H](CCC(N)=O)C(N)=O)(C3)NC(=O)[C@H]([C@@H](C)O)NC(=O)[C@H](Cc3ccccc3)NC(=O)[C@H](C)NC(=O)[C@H](C)NC(=O)[C@H](CN(CC(=O)O)CC(F)(F)F)NC(=O)[C@H](CC(=O)O)NC1=O)NC(=O)[C@H](CC(C)(C)C)NC(=O)[C@H](CC(=O)O)NC2=O` (stereo partly drawn) [I-1606, Ac-PL3-Asp-Npg-B5-Asp-TfeGA-Ala-Ala-Phe-Thr-PyrS2-2C1F-BztA-Gln-NH2]: the half-inhibitory concentration (IC50) came out at 107 nM.
Then `CC(=O)N1CCC[C@]12CC=CCCCC1(CCCC=CCCCCCC[C@@](C)(C(=O)N[C@@H](Cc3ccsc3)C(=O)N[C@@H](Cc3csc4ccccc34)C(=O)N[C@@H](CCC(N)=O)C(N)=O)NC(=O)[C@H](CC(N)=O)NC(=O)[C@H](Cc3ccccc3)NC(=O)[C@H](C)NC(=O)[C@H](C)NC(=O)[C@H]([C@@H](C)O)NC(=O)[C@H](CC(N)=O)NC1=O)NC(=O)[C@H](CC(C)(C)C)NC(=O)[C@H](CC(=O)O)NC2=O` (stereo partly drawn) [I-1617, Ac-PL3-Asp-Npg-B5-Asn-Thr-Ala-Ala-Phe-Asn-S8-3Thi-BztA-Gln-NH2], with 759 nM; and `CCCC[C@@H]1NC(=O)[C@H](Cc2ccccc2)NC(=O)[C@H](C)NC(=O)[C@H](C)NC(=O)[C@H]([C@@H](C)O)NC(=O)[C@H](CC(N)=O)NC(=O)C2(CCCC=CCCCOC(=O)N3CC[C@@](C(=O)N[C@@H](Cc4ccsc4)C(=O)N[C@@H](Cc4csc5ccccc45)C(=O)N[C@@H](CCC(N)=O)C(N)=O)(C3)NC1=O)CCCC=CC[C@]1(CCCN1C(C)=O)C(=O)N[C@@H](CC(=O)O)C(=O)N[C@@H](CC(C)(C)C)C(=O)N2` (stereo partly drawn) [I-1619, Ac-PL3-Asp-Npg-B5-Asn-Thr-Ala-Ala-Phe-nLeu-PyrS2-3Thi-BztA-Gln-NH2], with 1290 nM.
Then `CC(=O)N1CCC[C@]12CC=CCCCC1(CCCC=CCCCOC(=O)N3CC[C@@](C(=O)N[C@@H](Cc4ccsc4)C(=O)N[C@@H](Cc4csc5ccccc45)C(=O)N[C@@H](CCC(N)=O)C(N)=O)(C3)NC(=O)[C@H](CCC(C)C)NC(=O)[C@H](Cc3ccccc3)NC(=O)[C@H](C)NC(=O)[C@H](C)NC(=O)[C@H]([C@@H](C)O)NC(=O)[C@H](CC(N)=O)NC1=O)NC(=O)[C@H](CC(C)(C)C)NC(=O)[C@H](CC(=O)O)NC2=O` (stereo partly drawn) [I-1620, Ac-PL3-Asp-Npg-B5-Asn-Thr-Ala-Ala-Phe-hLeu-PyrS2-3Thi-BztA-Gln-NH2], with 2060 nM.
Then `CC(=O)N1CCC[C@]12CC=CCCCC1(CCCC=CCCCOC(=O)N3CC[C@@](C(=O)N[C@@H](Cc4ccsc4)C(=O)N[C@@H](Cc4csc5ccccc45)C(=O)N[C@@H](CCC(N)=O)C(N)=O)(C3)NC(=O)[C@H]([C@@H](C)O)NC(=O)[C@H](Cc3ccccc3)NC(=O)[C@H](C)NC(=O)[C@H](C)NC(=O)[C@H]([C@@H](C)O)NC(=O)[C@H](CC(N)=O)NC1=O)NC(=O)[C@H](CC(C)(C)C)NC(=O)[C@H](CC(=O)O)NC2=O` (stereo partly drawn) [I-1621, Ac-PL3-Asp-Npg-B5-Asn-Thr-Ala-Ala-Phe-Thr-PyrS2-3Thi-BztA-Gln-NH2], with 266 nM; and `CCC(C)N(CC(=O)O)C[C@@H]1NC(=O)[C@H](CC(=O)O)NC(=O)C2(CCCC=CCCCOC(=O)N3CC[C@@](C(=O)N[C@@H](Cc4ccccc4Cl)C(=O)N[C@@H](Cc4csc5ccccc45)C(=O)N[C@@H](CCC(N)=O)C(N)=O)(C3)NC(=O)[C@H](CC(N)=O)NC(=O)[C@H](Cc3ccccc3)NC(=O)[C@H](C)NC(=O)[C@H](C)NC1=O)CCCC=CC[C@]1(CCCN1C(C)=O)C(=O)N[C@@H](CC(=O)O)C(=O)N[C@@H](CC(C)(C)C)C(=O)N2` (stereo partly drawn) [I-1623, Ac-PL3-Asp-Npg-B5-Asp-[sBu]GA-Ala-Ala-Phe-Asn-PyrS2-2C1F-BztA-Gln-NH2], with 30 nM; and `CC(=O)N1CCC[C@]12CC=CCCCC1(CCCC=CCCCCCC[C@@](C)(C(=O)N[C@@H](Cc3ccsc3)C(=O)N[C@@H](Cc3csc4ccccc34)C(=O)N[C@@H](CCC(N)=O)C(N)=O)NC(=O)[C@H](CC(N)=O)NC(=O)[C@H](Cc3ccccc3)NC(=O)[C@H](C)NC(=O)[C@H](C)NC(=O)[C@H](CN(CC(=O)O)Cc3c(F)c(F)c(F)c(F)c3F)NC(=O)[C@H](CC(=O)O)NC1=O)NC(=O)[C@H](CC(C)(C)C)NC(=O)[C@H](CC(=O)O)NC2=O` (stereo partly drawn) [I-1624, Ac-PL3-Asp-Npg-B5-Asp-[Pfbn]GA-Ala-Ala-Phe-Asn-S8-3Thi-BztA-Gln-NH2], with 47.5 nM.
As for `CCC(C)N(CC(=O)O)C[C@@H]1NC(=O)[C@H](CC(=O)O)NC(=O)C2(CCCC=CCCCCCC[C@@](C)(C(=O)N[C@@H](Cc3ccsc3)C(=O)N[C@@H](Cc3csc4ccccc34)C(=O)N[C@@H](CCC(N)=O)C(N)=O)NC(=O)[C@H](CC(N)=O)NC(=O)[C@H](Cc3ccccc3)NC(=O)[C@H](C)NC(=O)[C@H](C)NC1=O)CCCC=CC[C@]1(CCCN1C(C)=O)C(=O)N[C@@H](CC(=O)O)C(=O)N[C@@H](CC(C)(C)C)C(=O)N2` (stereo partly drawn) [I-1626, Ac-PL3-Asp-Npg-B5-Asp-[sBu]GA-Ala-Ala-Phe-Asn-S8-3Thi-BztA-Gln-NH2], the IC50 was 721 nM.
Turning to `CC(=O)N1CCC[C@]12CC=CCCCC1(CCCC=CCCCOC(=O)N3CC[C@@](C(=O)N[C@@H](Cc4ccsc4)C(=O)N[C@@H](Cc4csc5ccccc45)C(=O)N[C@@H](CCC(N)=O)C(N)=O)(C3)NC(=O)[C@H](CC(N)=O)NC(=O)[C@H](Cc3ccccc3)NC(=O)[C@H](C)NC(=O)[C@H](C)NC(=O)[C@H](CN(CCC(F)(F)F)CC(=O)O)NC(=O)[C@H](CC(=O)O)NC1=O)NC(=O)[C@H](CC(C)(C)C)NC(=O)[C@H](CC(=O)O)NC2=O` (stereo partly drawn) [I-1640, Ac-PL3-Asp-Npg-B5-Asp-[Tfp]GA-Ala-Ala-Phe-Asn-PyrS2-3Thi-BztA-Gln-NH2], the IC50 came out at 8 nM.
Then `CC(=O)N1CCC[C@]12CC=CCCCC1(CCCC=CCCCOC(=O)N3CC[C@@](C(=O)N[C@@H](Cc4ccsc4)C(=O)N[C@@H](Cc4csc5ccccc45)C(=O)N[C@@H](CCC(N)=O)C(=O)NC4CCCCC4)(C3)NC(=O)[C@H](CC(N)=O)NC(=O)[C@H](Cc3ccccc3)NC(=O)[C@H](C)NC(=O)[C@H](C)NC(=O)[C@H](CN(CC(=O)O)CC(F)(F)F)NC(=O)[C@H](CC(=O)O)NC1=O)NC(=O)[C@H](CC(C)(C)C)NC(=O)[C@H](CC(=O)O)NC2=O` (stereo partly drawn) [I-1642, Ac-PL3-Asp-Npg-B5-Asp-TfeGA-Ala-Ala-Phe-Asn-PyrS2-3Thi-BztA-Gln-NHCyHe], with 36 nM; and `CC(=O)N1CCC[C@]12CC=CCCCC1(CCCC=CCCCOC(=O)N3CC[C@@](C(=O)N[C@@H](Cc4ccccc4)C(=O)N[C@@H](Cc4csc5ccccc45)C(=O)N[C@@H](CCCCN)C(N)=O)(C3)NC(=O)[C@H](CC(C)C)NC(=O)[C@H](Cc3ccccc3)NC(=O)[C@H](C)NC(=O)[C@H](CCCCNC(C)C)NC(=O)[C@H](CCC(N)=O)NC(=O)[C@H](CC(=O)O)NC1=O)NC(=O)[C@H](CC(C)(C)C)NC(=O)[C@H](CC(N)=O)NC2=O` (stereo partly drawn) [I-1643, Ac-PL3-Asn-Npg-B5-Asp-Gln-iPrLys-Ala-Phe-Leu-PyrS2-Phe-BztA-Lys-NH2], with 822 nM.
